Laboratory results published in publication PMC2011259, “Pentamethylmelamine (PMM): Phase I clinical and pharmacokinetic studies” (British Journal of Cancer, 1983).
Like-named read-outs stand apart in the source and are kept apart here.

Experiments:
[1] = Pharmacokinetic studies: plasma levels of PMM, TMM and TRIMM by gas liquid chromatography; assay type: in vivo, man; settings: for Detection as PMM metabolite in plasma: after i.v. PMM, patients studied; for half-life: intravenous; for Plasma concentration relative to parent drug: 2 h after the end of the infusion
Description: (§1) Br. J. Cancer (1983), 47, 027-033 Pentamethylmelamine (PMM): Phase I clinical and pharmacokinetic studies J.R.F. Muindi*, D.R. Newellt, I.E. Smith* & K.R. Harrapt *Division of Medicine, Institute of Cancer Research and Royal Marsden Hospital, and the tDepartment of Biochemical Pharmacology, Institute of Cancer Research, Sutton, Surrey. […] PMM has been administered as an intravenous infusion to 17 patients in a Phase I clinical trial. […] In the present study the results of the Phase I clinical evaluation of PMM at the Royal Marsden Hospital are reported. In addition to the clinical assessment of patients, pharmacokinetic studies were also performed. […] (Broggini et al., 1981; Morimoto et al., 1980; Ames et al., 1979; Casper et al., 1981; Idhe et al., 1981; Benvenuto et al., 1981; Rutty et al., 1982). […] The mechanism of action of N-methylolmelamines is, however, still uncertain. To ascertain the rate and extent of PMM metabolism in man, plasma levels of the parent drug and the first two products of oxidative N- demethylation i.e. N2,N2,N4,N6-tetramethyl- melamine (TMM) and N2,N4,N6-trimethylmelamine (TRIMM) were measured (Figure 2). […] Materials and methods Patient selection The patients entered in the PMM Phase I clinical study were all under the care of the Royal Marsden Hospital. […] Additional criteria required for eligibility to enter into the study included: WBC and platelet count > 3000 uM I-' and > 100,000 pM 11 respectively; blood urea and serum creatinine < 8 mM ,M I1- and < 106 pM 1 respectively. None of the patients had received cancer chemotherapy or radiotherapy during the 3-week period preceding their entry into the study. […] The treatment protocol was approved by the Ethical Committee of the Royal Marsden Hospital and informed consent was obtained from all patients prior to entry into the study. […] It was supplied by Prof. W.C.J. Ross of the Chester Beatty Research Institute, London, as a white crystalline powder. PMM (2mg ml-') was infused intravenously as a 2% ethanol 5% dextrose solution after micropore (0.22 pm) filtration. All formulated PMM infusions were used within 24h of preparation, as a sterility precaution. PMM was initially given at a dose of […] and the dose escalated to 1300mgm-2 according to a modified Fibonacci scheme (Table II). At higher PMM doses, requiring large infusion volumes, the infusion time was extended from 1 to 4 h. No dose escalation was TRIMM CH3 Nc"N H 11 H Ii N N H CH3 HCHO 1. carried out in the same patient.

[2] = system: malignant tumours; assay: Tumour response in the Phase I trial; assay type: in vivo, man
Description: Br. J. Cancer (1983), 47, 027-033 Pentamethylmelamine (PMM): Phase I clinical and pharmacokinetic studies J.R.F. Muindi*, D.R. Newellt, I.E. Smith* & K.R. Harrapt *Division of Medicine, Institute of Cancer Research and Royal Marsden Hospital, and the tDepartment of Biochemical Pharmacology, Institute of Cancer Research, Sutton, Surrey. […] PMM has been administered as an intravenous infusion to 17 patients in a Phase I clinical trial. […] In the present study the results of the Phase I clinical evaluation of PMM at the Royal Marsden Hospital are reported. In addition to the clinical assessment of patients, pharmacokinetic studies were also performed. […] (Broggini et al., 1981; Morimoto et al., 1980; Ames et al., 1979; Casper et al., 1981; Idhe et al., 1981; Benvenuto et al., 1981; Rutty et al., 1982). […] The mechanism of action of N-methylolmelamines is, however, still uncertain. To ascertain the rate and extent of PMM metabolism in man, plasma levels of the parent drug and the first two products of oxidative N- demethylation i.e. N2,N2,N4,N6-tetramethyl- melamine (TMM) and N2,N4,N6-trimethylmelamine (TRIMM) were measured (Figure 2). […] Materials and methods Patient selection The patients entered in the PMM Phase I clinical study were all under the care of the Royal Marsden Hospital. […]

[3] = set-up: method as in Rutty et al., 1982; settings: patients of this trial, not detectable; ref Rutty et al., 1982; cited from earlier work
[4] = set-up: method as in Ames et al. (1979); settings: rabbits, independent of the route (i.v. and oral); ref Ames et al. (1979); cited from earlier work
[5] = system: experimental tumour test systems; set-up: method as in earlier work; settings: a number of experimental tumour test systems, ref Cumber & Ross, 1977, Connors et al., Goldin et al., 1981; cited from earlier work
[6] = system: patients with malignant tumours; assay: Phase I clinical evaluation of toxicity of PMM given as intravenous infusion; assay type: in vivo, man; set-up: key to Nausea/vomiting Intensity: Mild: Vomiting once or twice during the infusion and requiring no anti- emetics was classified as mild; Moderate: vomiting that persisted up to 6 h after infusion and requiring a maximum administration of two courses of anti- emetics was regarded as moderate; Severe: Vomiting was classified as severe if it continued up to 24 h after PMM infusion and/or could only be controlled partially by repeated doses of anti-emetics; settings: for Nausea/vomiting Frequency: per courses
Description: as §1

[7] = set-up: method as in Rutty et al., 1982; settings: mice; ref Rutty et al., 1982; cited from earlier work
[8] = set-up: method as in Cumber & Ross, 1977; settings: compared with N2,N4,N6-trimethyl-N2,N4,N6-trimethylolmelamine; ref Cumber & Ross, 1977; cited from earlier work
[9] = system: patients; settings: cited from earlier work
[10] = set-up: method as in Rutty et al., 1982; settings: rats; ref Rutty et al., 1982; cited from earlier work
[11] = patient eight, PMM dose 300 mg m-2 i.v., hepatic function abnormal
[12] = patient five, PMM dose 200 mg m-2 i.v., hepatic function abnormal
[13] = patient four, PMM dose 200 mg m-2 i.v., hepatic function normal
[14] = patient one, PMM dose 300 mg m-2 i.v., hepatic function normal
[15] = patient seven, PMM dose 500 mg m-2 i.v., hepatic function normal
[16] = patient six, PMM dose 100 mg m-2 i.v., hepatic function normal
[17] = patient three, PMM dose 500 mg m-2 i.v., hepatic function abnormal
[18] = patient two, PMM dose 100 mg m-2 i.v., hepatic function normal
[19] = patients with normal liver function

In the case of CNc1nc(N)nc(NC)n1 [N2,N4-dimethylmelamine], the “Detection as PMM metabolite in plasma” value [1] is reported as “observed”.
For CNc1nc(N(C)C)nc(N(C)C)n1 [PMM, Pentamethylmelamine], the Minor response ([2]; 500 mg m-2, patient with squamous cell carcinoma of bronchus) is listed as “One minor response”, the “Complete or partial responses” value ([2]; 17 patients, 100-1300 mg m-2) is listed as “No complete or partial responses” and the “PMM metabolites capable of releasing formaldehyde in plasma” value [3] is listed as under 50 µM. The “Urinary excretion of drug-derived material” value [4] was 75-85 % dose admin, the “Activity relative to HMM” value [5] was “equivalent activity” and the “Nausea/vomiting Intensity” value ([6]; 100 mg m-2 i.v. infusion) was “Mild”. The “Nausea/vomiting Frequency” value ([6]; 100 mg m-2 i.v. infusion, 3 patients) was 0/7, the “Nausea/vomiting Frequency” value ([6]; 200 mg m-2 i.v. infusion, 3 patients) was 1/7 and the “Nausea/vomiting Intensity” value ([6]; 300 mg m-2 i.v. infusion) was “Moderate (vomiting that persisted up to 6 h after infusion and requiring a maximum administration of two courses of anti- emetics was regarded as moderate)”. The “Nausea/vomiting Frequency” value ([6]; 300 mg m-2 i.v. infusion, 3 patients) was 2/5, the “Patients with nausea and vomiting” value ([6]; 500 mg m-2 and above) was “all patients” and the “Nausea/vomiting Frequency” value ([6]; 500 mg m-2 i.v. infusion, 3 patients) was 8/8. The “Nausea/vomiting Intensity” value ([6]; 800 mg m-2 i.v. infusion) was “Severe (Vomiting was classified as severe if it continued up to 24 h after PMM infusion and/or could only be controlled partially by repeated doses of anti-emetics)”, the “Nausea/vomiting Frequency” value ([6]; 800 mg m-2 i.v. infusion, 3 patients) was 7/7 and the “Duration of nausea and vomiting” value ([6]; 1300 mg m-2 i.v. infusion) was over 24 h. The “Nausea/vomiting Frequency” value ([6]; 1300 mg m-2 i.v. infusion, 2 patients) was 4/4, the “Severity of nausea and vomiting” value ([6]; 1300 mg m-2 i.v. infusion, poorly controlled by anti-emetics) was “severe” and the Haematological toxicity ([6]; 100-1300 mg m-2 i.v. infusion) was “not observed”. The Hepatic toxicity ([6]; 100-1300 mg m-2 i.v. infusion) was “not observed”, the Renal toxicity ([6]; 100-1300 mg m-2 i.v. infusion) was “not observed” and the “Acute neurological side effects” value ([6]; doses below 500 mg m-2, not assessable at higher doses because of anti-emetics) was “no neurological side effects were observed”. For the same molecule, the Dose-limiting toxicities ([6]; i.v. infusion 100-1300 mg m-2, 3 weekly) was “nausea and vomiting”, the “Pruritic erythematous maculopapular skin rashes” value ([6]; one patient at 200 mg m-2 (2nd course), one at 1300 mg m-2, other medications possibly responsible) was “Two patients” and the PMM metabolites capable of releasing formaldehyde in plasma [7] was 563 to 773 µM. The Chemical stability [8] was “greater chemical stability”, the Haematological toxicity ([9]; 1.2 g/m2/day x 10, ref Goldberg et al. (1980)) was “reproducibly induced haematological toxicity” and the “Partial response among all patients who have received PMM” value ([9]; of 173 patients, ref Casper et al., 1981) was 1. The “Minor responses among all patients who have received PMM” value ([9]; of 173 patients, ref Van Echo et al., 1980, Ajani et al., 1982 and the present study) was 7, the “PMM metabolites capable of releasing formaldehyde in plasma” value [10] was 211 yM and the “Correlation (r) of plasma levels at the end of the infusion with dose” value ([1]; 1 h infusion, 100-300 mg m-2, P = 0.005) was 0.94. It also gave a half-life ([1]; human, plasma, 100 mg m-2, patient six, 100 mg m-2, hepatic function normal, value + s.e., read-out: PMM plasma t1/2 (overall elimination phase)) of 0.902 h, a half-life ([1]; human, plasma, 200 mg m-2, patient five, 200 mg m-2, hepatic function abnormal, value + s.e., read-out: PMM plasma t1/2 (overall elimination phase)) of 2.25 h and a half-life ([1]; human, plasma, 300 mg m-2, patient eight, 300 mg m-2, hepatic function abnormal, value + s.e., read-out: PMM plasma t1/2 (overall elimination phase)) of 2.54 h. It also gave a half-life ([1]; human, plasma, 300 mg m-2, patient one, 300 mg m-2, hepatic function normal, value + s.e., read-out: PMM plasma t1/2 (overall elimination phase)) of 1.21 h, a half-life ([1]; human, plasma, 500 mg m-2, patient seven, 500 mg m-2, hepatic function normal, value + s.e., read-out: PMM plasma t1/2 (overall elimination phase)) of 1.14 h and a half-life ([1]; human, plasma, 500 mg m-2, patient three, 500 mg m-2, hepatic function abnormal, value + s.e., read-out: PMM plasma t1/2 (overall elimination phase)) of 2.12 h. It also gave a half-life ([1]; human, plasma, patients with hepatic disease and abnormal liver function tests, mean + SEM, n = 3, P = 0.002 vs normal, read-out: PMM t1/2, group mean) of 2.3 h, a half-life ([1]; human, plasma, patients with normal liver function, mean + SEM, n = 3, read-out: PMM t1/2, group mean) of 1.08 h and an AUC(0-t) ([1]; human, plasma, iv, i.v. PMM 100-300 mg m-2, n = 6, mean + SEM, read-out: PMM AUC 0-12h (converted)) of 72.3 µM·h. For the same molecule, the “Area under the plasma conc. v. time curve” value (“Area” for short) [1, 11] was 6019 IM x min, the “Area” value [1, 12] was 7175 IM x min and the “PMM pharmacokinetics in the disposition phase (order)” value ([1]; patient four, 200 mg m-2, hepatic function normal) was “not first-order”. The “Area” value [1, 13] was 1694 IM x min, the “Area” value [1, 14] was 6232 IM x min and the “Area” value [1, 15] was 3940 IM x min. For the same molecule, the “Area” value [1, 16] was 734 IM x min, the “Area” value [1, 17] was 7179 IM x min and the “PMM pharmacokinetics in the disposition phase (order)” value ([1]; patient two, 100 mg m-2, hepatic function normal) was “not first-order”. For the same molecule, the “Area” value [1, 18] was 317 IM x min.
In the case of CNc1nc(NC)nc(N(C)C)n1 [TMM, N2,N2,N4,N6-tetramethylmelamine], the “Detection as PMM metabolite in plasma” value [1] is reported as “detected”, the “Area” value [1, 11] is reported as 2121 IM x min and the “Area” value [1, 12] is reported as 1804 IM x min. The “Area” value [1, 13] was 397 IM x min, the “Area” value [1, 14] was 3697 IM x min and the “Area” value [1, 15] was 2693 IM x min. For the same molecule, the “Area” value [1, 16] was 204 IM x min, the “Area” value [1, 17] was 6206 IM x min and the “Area” value [1, 18] was 151 IM x min. For the same molecule, the “Plasma concentration relative to parent drug” value [1, 19] was “greater concentrations than the parent drug”.
With CNc1nc(NC)nc(NC)n1 [TRIMM, N2,N4,N6-trimethylmelamine] the “Detection as PMM metabolite in plasma” value [1] was “detected”, the “Area” value [1, 11] was 627 IM x min and the “Area” value [1, 12] was 1438 IM x min. For the same molecule, the “Area” value [1, 13] was 1070 IM x min, the “Area” value [1, 14] was 4091 IM x min and the “Area” value [1, 15] was 3710 IM x min. For the same molecule, the “Area” value [1, 16] was 573 IM x min, the “Area” value [1, 17] was 7995 IM x min and the “Area” value [1, 18] was 189 IM x min. The “Plasma concentration relative to parent drug” value [1, 19] was “greater concentrations than the parent drug”.
